According to the supplement of paper PMC11451515:

Tested on: NOMO1
Test: cell viability relative to DMSO control; higher = less cytotoxic
Settings: 48 h
Summary of the method: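 Viability, reported as a per-plate percentage of DMSO wells with cell-free wells as background, came from CellTiter-Glo One luminescence. Reading took place after 48 h at 37°C. Before that, NOMO1 or SEM (500 cells/well) or P12-Ichikawa (1000 cells/well) leukemia cells, adapted for at least four passages in each medium, were seeded in 1536-well plates (5 μl) and pin-dosed with library compounds in DMSO, 47 μM to 0.79 nM over 11 threefold points.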

COc1cc(NC(=O)c2ccc(-c3ccc(Cl)cc3)o2)cc(OC)c1
cell viability [%]
Settings | HPLM + 10% dialyzed FBS | RPMI 5 mM glucose + 10% FBS | RPMI 5 mM glucose + 10% dialyzed FBS
0.000781 µM | 95.5 | 91.4 | 97.5
0.00234 µM | 103 | 106 | 111
0.00702 µM | 112 | 104 | 108
0.0211 µM | 112 | 100 | 108
0.0632 µM | 114 | 101 | 111
0.19 µM | 118 | 110 | 115
0.569 µM | 112 | 108 | 109
1.71 µM | 104 | 92.1 | 94.9
5.12 µM | 61.8 | 58.7 | 66.8
15.4 µM | 52.7 | 74.4 | 50.7
46.1 µM | 39.6 | 72.3 | 62.8
